Measurements reported in US11051515B2, “3-acyl-benzamides and their use as herbicides” (Bayer Aktiengesellschaft, priority 2017, dated 2021).

Columns and labels:
VERPE [1] = test: Pre-emergence action against VERPE; type: in vivo, Veronica persica; settings: Dosage 320 g/ha, pre-emergence
Outline: (§1)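 Seeds sown in sandy loam in wood-fiber pots and covered with soil. Greenhouse growth; visual damage scored after 3 weeks versus untreated controls (100% = dead, 0% = like control).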

ABUTH [2] = test: Pre-emergence action against ABUTH; type: in vivo, Abutilon theophrasti; settings: pre-emergence, dosage 320 g/ha, scored visually after 3 weeks vs untreated controls
Outline: as §1

LOLRI = test: Pre-emergence action against LOLRI; type: in vivo, Lolium rigidum; settings: dosage 320 g/ha, scored visually after 3 weeks vs untreated controls
From the text: (§2) Seeds of monocotyledonous and dicotyledonous weed plants and crop plants are laid out in sandy loam soil in wood-fiber pots and covered with soil. The compounds of the invention, formulated in the form of wettable powders (WP) or as emulsion concentrates (EC), are then applied to the surface of the covering soil in the form of an aqueous suspension or emulsion at a water application rate equating to […], with addition of 0.2% wetting agent. After the treatment, the pots are placed in a greenhouse and kept under good growth conditions for the trial plants. The damage to the test plants is scored visually after a test period of 3 weeks by comparison with untreated controls (herbicidal activity in percent (%): 100% activity=the plants have died, 0% activity=like control plants).

PHBPU [3] = test: Post-emergence action against PHBPU; type: in vivo, Pharbitis purpurea; settings: post-emergence, dosage 80 g/ha
Outline: (§3)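 Weeds grown in sandy loam in greenhouse, treated at one-leaf stage (2–3 weeks after sowing) with WP or EC formulations sprayed as aqueous suspension/emulsion at 600 to […] water with 0.2% wetting agent. Visual rating after about 3 weeks versus untreated controls, as % herbicidal action (100% = plants dead, 0% = like control).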

ABUTH [4] = test: Post-emergence action against ABUTH; type: in vivo, Abutilon theophrasti; settings: post-emergence, dosage 80 g/ha, visual assessment about 3 weeks after treatment vs untreated controls
Outline: as §3

AMARE [5] = test: Post-emergence action against AMARE; type: in vivo, Amaranthus retroflexus; settings: post-emergence, dosage 80 g/ha, visual assessment about 3 weeks after treatment vs untreated controls
Outline: as §3

ECHCG [6] = test: Post-emergence action against ECHCG; type: in vivo, Echinochloa crus-galli; settings: post-emergence, dosage 80 g/ha, visual assessment about 3 weeks after treatment vs untreated controls
Outline: as §3

STEME [7] = test: Post-emergence action against STEME; type: in vivo, Stellaria media; settings: post-emergence, dosage 80 g/ha
Outline: as §3

AVEFA [8] = test: Pre-emergence action against AVEFA; type: in vivo, Avena fatua; settings: dosage 320 g/ha, scored visually after 3 weeks vs untreated controls
Outline: as §1

VIOTR [9] = test: Pre-emergence action against VIOTR; type: in vivo, Viola tricolor; settings: Dosage 320 g/ha, pre-emergence
Outline: as §1

ALOMY = test: Pre-emergence action against ALOMY; type: in vivo, Alopecurus myosuroides; settings: dosage 320 g/ha, pre-emergence, scored visually after 3 weeks vs untreated controls, 100% = plants have died, 0% = like control plants
Outline: as §1

PHBPU [10] = test: Pre-emergence action against PHBPU; type: in vivo, Pharbitis purpurea; settings: Ipomoea purpurea, 504 h; Dosage 320 g/ha, pre-emergence
Outline: as §1

ECHCG [11] = test: Pre-emergence action against ECHCG; type: in vivo, Echinochloa crus-galli; settings: pre-emergence, dosage 320 g/ha, scored visually after 3 weeks vs untreated controls
Outline: as §1

VIOTR [12] = test: Post-emergence action against VIOTR; type: in vivo, Viola tricolor; settings: Viola tricolor, 504 h; post-emergence, dosage 80 g/ha
Outline: as §3

MATIN [13] = test: Post-emergence action against MATIN; type: in vivo, Matricaria inodora; settings: post-emergence, dosage 80 g/ha, visual assessment about 3 weeks after treatment vs untreated controls
Outline: as §3

HORMU = test: Pre-emergence action against HORMU; type: in vivo, Hordeum murinum; settings: Dosage 320 g/ha
From the text: as §2

VERPE [14] = test: Post-emergence action against VERPE; type: in vivo, Veronica persica; settings: Veronica persica, 504 h, dosage 80 g/ha
Outline: as §3

MATIN [15] = test: Pre-emergence action against MATIN; type: in vivo, Matricaria inodora; settings: Dosage 320 g/ha, pre-emergence
Outline: as §1

SETVI [16] = test: Pre-emergence action against SETVI; type: in vivo, Setaria viridis; settings: pre-emergence, dosage 320 g/ha, scored visually after 3 weeks vs untreated controls
Outline: as §1

AMARE [17] = test: Pre-emergence action against AMARE; type: in vivo, Amaranthus retroflexus; settings: pre-emergence, dosage 320 g/ha, scored visually after 3 weeks vs untreated controls
Outline: as §1

STEME [18] = test: Pre-emergence action against STEME; type: in vivo, Stellaria media; settings: Dosage 320 g/ha, pre-emergence
Outline: as §1

CYPES = test: Pre-emergence action against CYPES; type: in vivo, Cyperus esculentus; settings: pre-emergence, dosage 320 g/ha, scored visually after 3 weeks vs untreated controls
Outline: as §1

SETVI [19] = test: Post-emergence action against SETVI; type: in vivo, Setaria viridis; settings: post-emergence, dosage 80 g/ha, visual assessment about 3 weeks after treatment vs untreated controls
Outline: as §3

AVEFA [20] = test: Post-emergence action against AVEFA; type: in vivo, Avena fatua; settings: post-emergence, dosage 80 g/ha, visual assessment about 3 weeks after treatment vs untreated controls
Outline: as §3

What does the source list for CCCC(=O)c1c(C(F)(F)F)ccc(C(=O)Nc2nnnn2C)c1Cl [1-139]?
pest or weed control at 320 g/ha (VERPE [1]; Veronica persica, 504 h): 100%; pest or weed control at 320 g/ha (ABUTH [2]; Abutilon theophrasti, 504 h, read-out: Pre-emergence action against ABUTH (herbicidal activity)): 100%; pest or weed control at 320 g/ha (LOLRI; Lolium rigidum, 504 h, read-out: Pre-emergence action against LOLRI (herbicidal activity)): 100%; pest or weed control at 80 g/ha (PHBPU [3]; Ipomoea purpurea, 504 h): 100%; pest or weed control at 80 g/ha (ABUTH [4]; Abutilon theophrasti, 504 h, read-out: Post-emergence action against ABUTH (herbicidal action in percent)): 90%; pest or weed control at 80 g/ha (AMARE [5]; Amaranthus retroflexus, 504 h, read-out: Post-emergence action against AMARE (herbicidal action in percent)): 100%; pest or weed control at 80 g/ha (ECHCG [6]; Echinochloa crus-galli, 504 h, read-out: Post-emergence action against ECHCG (herbicidal action in percent)): 90%; pest or weed control at 80 g/ha (STEME [7]; Stellaria media, 504 h): 100%; pest or weed control at 320 g/ha (AVEFA [8]; Avena fatua, 504 h, read-out: Pre-emergence action against AVEFA (herbicidal activity)): 100%; pest or weed control at 320 g/ha (VIOTR [9]; Viola tricolor, 504 h): 100%; pest or weed control at 320 g/ha (ALOMY; Alopecurus myosuroides, 504 h, read-out: Pre-emergence action against ALOMY (herbicidal activity in percent)): 100%; pest or weed control at 320 g/ha (PHBPU [10]): 100%; pest or weed control at 320 g/ha (ECHCG [11]; Echinochloa crus-galli, 504 h, read-out: Pre-emergence action against ECHCG (herbicidal activity)): 100%; pest or weed control at 80 g/ha (VIOTR [12]): 100%; pest or weed control at 80 g/ha (MATIN [13]; Tripleurospermum inodorum, 504 h, read-out: Post-emergence action against MATIN (herbicidal action in percent)): 90%; pest or weed control at 320 g/ha (HORMU; Hordeum murinum, 504 h): 90%; pest or weed control at 80 g/ha (VERPE [14]): 80%; pest or weed control at 320 g/ha (MATIN [15]; Tripleurospermum inodorum, 504 h): 100%; pest or weed control at 320 g/ha (SETVI [16]; Setaria viridis, 504 h, read-out: SETVI (Table B8, pre-emergence herbicidal activity)): 100%; pest or weed control at 320 g/ha (AMARE [17]; Amaranthus retroflexus, 504 h, read-out: Pre-emergence action against AMARE (herbicidal activity)): 100%; pest or weed control at 320 g/ha (STEME [18]; Stellaria media, 504 h): 100%; pest or weed control at 320 g/ha (CYPES; Cyperus esculentus, 504 h, read-out: Pre-emergence action against CYPES (herbicidal activity)): 90%

What does the source list for Cn1nnnc1NC(=O)c1ccc(C(F)(F)F)c(C(=O)C2(C)CC2)c1Cl [1-147]?
Pre-emergence action against VERPE (VERPE [1]): 100%; Pre-emergence action against ABUTH (herbicidal activity) (ABUTH [2]): 100%; Pre-emergence action against LOLRI (herbicidal activity) (LOLRI): 90%; Post-emergence action against PHBPU (PHBPU [3]): 80; Post-emergence action against ABUTH (herbicidal action in percent) (ABUTH [4]): 100%; Post-emergence action against AMARE (herbicidal action in percent) (AMARE [5]): 100%; Post-emergence action against ECHCG (herbicidal action in percent) (ECHCG [6]): 100%; Post-emergence action against STEME (STEME [7]): 80; Pre-emergence action against AVEFA (herbicidal activity) (AVEFA [8]): 90%; Pre-emergence action against VIOTR (VIOTR [9]): 100%; Pre-emergence action against ALOMY (herbicidal activity in percent) (ALOMY): 100%; Pre-emergence action against ECHCG (herbicidal activity) (ECHCG [11]): 100%; Post-emergence action against MATIN (herbicidal action in percent) (MATIN [13]): 90%; Post-emergence action against SETVI (herbicidal action in percent) (SETVI [19]): 100%; Pre-emergence action against HORMU (HORMU): 90%; Pre-emergence action against MATIN (MATIN [15]): 100%; SETVI (Table B8, pre-emergence herbicidal activity) (SETVI [16]): 100%; Pre-emergence action against AMARE (herbicidal activity) (AMARE [17]): 100%; Pre-emergence action against STEME (STEME [18]): 100%; Pre-emergence action against CYPES (herbicidal activity) (CYPES): 100%; Post-emergence action against AVEFA (herbicidal action in percent) (AVEFA [20]): 100%
